The results in this text go back to patent US12281084B2, “Acetyl-CoA synthetase 2 (ACSS2) inhibitors and methods using same” (The Wistar Institute, priority 2019, dated 2025).

One assay concerns SKBr3 cells. The assay is described as follows: 13C2-acetate tracing in SKBr3 cells. Format: cell-based, human. To be noted: 100 μM 13C2-acetate, 24 hr, N10 or H1 (FIG. 2B). The procedure:
(§1) All metabolomic experiments were performed in serum-like modified Eagle's medium (SMEM). SMEM contains 54 different nutrients that are found in the bloodstream at concentrations that are physiologically relevant to humans. SMEM was supplemented with 10% or 1% fetal bovine serum (FBS; Life Technologies). Cells were grown in normoxia (atmospheric oxygen) or hypoxia (1% oxygen) while being incubated in uniformly labeled ^13C2-acetate (0.100 mM; Cambridge Isotope Laboratories). Lengths of incubation are described in the figure legends. For extraction of metabolites from cultured cells, SMEM medium was aspirated and cells were washed once in ice-cold PBS. Metabolites were extracted by adding a solution of LC-MS grade methanol/acetonitrile/water (5:3:2) to the well. […]
(§2) LC-MS analysis was performed on a Q Exactive Hybrid Quadrupole-Orbitrap HF-X MS (ThermoFisher Scientific) equipped with a HESI II probe and coupled to a Vanquish Horizon UHPLC system (ThermoFisher Scientific). […] Samples were analyzed in full MS scan with polarity switching at scan range 65 to 975 m/z; 120,000 resolution; automated gain control (AGC) target of 1E6; and maximum injection time (max IT) of 100 milliseconds. Identification and quantitation of metabolites was performed using an annotated compound library and TraceFinder 4.1 software. […]

The target of the next assay is T1, recombinant human ACSS2 (Homo sapiens, UniProt Q9NR19).
T1 construct: purchased Origene TP304260
T1 sequence (Q9NR19 whole entry): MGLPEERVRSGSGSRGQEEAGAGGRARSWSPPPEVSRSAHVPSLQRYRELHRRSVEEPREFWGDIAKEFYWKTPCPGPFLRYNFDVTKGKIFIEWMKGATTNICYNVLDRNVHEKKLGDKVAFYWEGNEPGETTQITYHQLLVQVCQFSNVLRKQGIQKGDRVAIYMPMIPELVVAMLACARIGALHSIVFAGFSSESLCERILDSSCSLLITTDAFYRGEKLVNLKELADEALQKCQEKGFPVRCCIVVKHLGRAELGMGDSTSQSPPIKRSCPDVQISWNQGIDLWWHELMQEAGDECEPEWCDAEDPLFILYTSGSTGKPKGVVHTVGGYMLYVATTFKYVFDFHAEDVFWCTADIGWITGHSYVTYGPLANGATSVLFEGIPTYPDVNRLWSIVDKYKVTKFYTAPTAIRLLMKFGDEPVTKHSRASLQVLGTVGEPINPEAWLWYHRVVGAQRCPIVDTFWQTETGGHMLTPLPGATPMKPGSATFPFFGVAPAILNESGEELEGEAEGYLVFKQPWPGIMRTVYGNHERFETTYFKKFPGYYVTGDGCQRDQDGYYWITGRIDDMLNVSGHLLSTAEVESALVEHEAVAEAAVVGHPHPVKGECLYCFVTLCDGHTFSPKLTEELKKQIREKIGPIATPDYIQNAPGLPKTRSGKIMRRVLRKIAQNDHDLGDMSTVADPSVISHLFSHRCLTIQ
The assay is described as follows: ACSS2 biochemical assay (Transcreener AMP assay). To be noted: in vitro biochemical TranScreener assay; mean±S.D., n≥3 (FIG. 1C). How it is done:
ACSS2 enzyme activity was measured using the TRANSCREENER® TRF AMP/GMP assay (Bellbrook Labs). Recombinant ACSS2 was purchased from Origene. The assay was performed in white, opaque, low volume 384 well plates. Test compounds were diluted in 100% DMSO and then 100 nL of each dilution was transferred using the Janus MDT Nanohead to assay plates containing 3 μL ACSS2 (2.5 nM) in assay buffer (30 mM HEPES, pH 7.4, 140 mM NaCl, 2 mM MgCl2, 5 mM sodium acetate, 2 mM DTT, 0.005% Brij35). Three microliters of substrate mix containing 100 μM ATP and 10 μM coenzyme A was added to the plates followed by a 120 min incubation. The final concentrations of enzyme and substrates in the reaction mix was 1.25 nM ACSS2, 50 μM ATP, and 5 μM coenzyme A. After incubation, 3 μL of terbium conjugated AMP antibody and AMP tracer was added to the plates according to the methods described by BellBrook Labs. After an additional 30 min, the HTRF signal was measured using an Envision Plate reader. Data were normalized to % inhibition, where 100% inhibition is equal to the counts obtained in the absence of ACSS2, and 0% inhibition is equal to the counts obtained in the complete reaction including a DMSO control.
A robust biochemical screening assay was set up for testing compounds as potential ACSS2 inhibitors. […]

The next assay has as its system BT474 tumors. The assay can be described thus: In vivo 13C2-acetate tracing in BT474 tumors. Details: species or system mouse. The procedure:
as §1, with “well. Plates were incubated at 4° C. for 5 minutes on a rocker and then the extraction solution was collected. The metabolite extract was cleared by centrifugation at 15,000×g for 10 minutes at 4° C. Supernatants were transferred to LC-MS silanized glass vials with PTFE caps and either run immediately on the LC-MS or stored at −80° C.” for “well.”
as §2
On-target activity of VY-3-135 in the tumor was probed. […] Tumor lipid extracts were saponified and the resulting fatty acids were analyzed by LC-MS. Likewise, polar metabolites were extracted from matching tumor samples and analyzed by LC-MS. […] Isotopologs ≥M+10 were not detected in tumors from VY-3-135 treated mice.

For the compound `CCn1c(C(O)(c2ccccc2)c2ccccc2)nc2ccc(C(=O)NC[C@@H](C)O)cc21` [VY-3-135, (R)-1-ethyl-2-(hydroxydiphenylmethyl)-N-(2-hydroxypropyl)-1H-benzo[d]imidazole-6-carboxamide], the “fatty acid synthesis from acetate (13C2-acetate labeling of palmitate)” value in the assay with SKBr3 cells is on record as “completely blocked fatty acid synthesis from acetate”. Moreover, on recombinant human ACSS2, the IC50 turned out to be 44 ± 3.85 nM. In the assay with BT474 tumors (BT474 tumors (FIG. 6D)), the “13C2-acetate labeling of citrate in tumors” value is listed as “no effect was observed”. In the assay with BT474 tumors (BT474 tumors from treated mice), the “palmitate isotopologs ≥M+10 in tumors” value was “not detected”. The “13C labeling of palmitate in tumors” value with BT474 tumors (BT474 tumors, 13C2-acetate in drinking water 48 hours (FIG. 6C)) is given as “caused a significant decrease in the ^13C labeling of palmitate”.

As a reminder, the IC50 is the point on the concentration scale where inhibition reaches its midpoint.
